The values below come from patent publication US8937039B2, “Peptide-based peroxidase inhibitors and methods of using same” (The Medical College of Wisconsin, Inc., priority 2009, dated 2015).

Data set [1] concerns the target T1, MPO (Homo sapiens, UniProt P05164).
T1 sequence (P05164 49-745): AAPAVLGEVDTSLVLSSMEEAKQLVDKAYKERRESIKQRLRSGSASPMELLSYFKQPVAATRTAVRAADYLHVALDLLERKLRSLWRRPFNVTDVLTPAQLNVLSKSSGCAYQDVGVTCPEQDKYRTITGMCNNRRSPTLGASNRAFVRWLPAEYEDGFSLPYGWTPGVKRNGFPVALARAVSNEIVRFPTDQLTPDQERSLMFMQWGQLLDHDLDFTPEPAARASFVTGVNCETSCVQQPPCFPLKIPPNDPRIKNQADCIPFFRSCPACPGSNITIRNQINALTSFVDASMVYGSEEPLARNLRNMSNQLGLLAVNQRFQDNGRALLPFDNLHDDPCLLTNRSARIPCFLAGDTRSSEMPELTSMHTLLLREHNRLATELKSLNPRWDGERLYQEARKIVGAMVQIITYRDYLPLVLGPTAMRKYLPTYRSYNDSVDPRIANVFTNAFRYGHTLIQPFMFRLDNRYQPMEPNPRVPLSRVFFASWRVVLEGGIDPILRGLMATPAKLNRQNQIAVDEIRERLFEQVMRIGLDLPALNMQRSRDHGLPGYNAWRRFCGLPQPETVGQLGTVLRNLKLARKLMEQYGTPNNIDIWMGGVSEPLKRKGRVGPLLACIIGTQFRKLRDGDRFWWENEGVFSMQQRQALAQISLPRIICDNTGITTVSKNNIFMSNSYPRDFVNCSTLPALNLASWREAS
Put plainly: MPO-mediated nitration of BSA (western blot for nitrotyrosine). Further details: purchased Lee Biosolutions (St. Louis, Mo.). The settings on record: for MPO-mediated BSA nitration (in words): H2O2 100 μM, nitrite 100 μM. Type of data set: biochemical. As to the method:
MPO-mediated Nitration of Bovine Serum Albumin (BSA). BSA (0.5 mg/mL) was incubated with MPO (20 nM), H2O2 (100 μM), nitrite (100 μM) and increasing concentrations of KYC in phosphate buffer (100 mM, pH 7.4) containing DTPA (100 μM) for 30 min. Reactions were stopped by addition of catalase. Nitrotyrosine formation was assessed by western blot analysis.
MPO-mediated Nitration of Bovine Serum Albumin (BSA): BSA (0.5 mg/mL) was incubated with MPO (20 nM), H2O2 (25 μM), NaNO2 (50 μM) and increasing concentrations of KYC in phosphate buffer (100 mM, pH 7.4) containing DTPA (100 μM) for 30 min. Reactions were halted by addition of catalase (2,000 units/mL). NO2Tyr formation was assessed by western blot analysis with an anti-NO2Tyr rabbit polyclonal antibody (EMD, Gibbstown, N.J.).
For orientation: Immunoblotting shows a protein as a band on a membrane.

A short description of data set [2]: Solubility in aqueous buffers. The class given is physicochemical.
The next data set deals with BAEC. Put plainly: MPO-mediated BAEC injury (cell morphology). To be noted: MPO 2.5 μg/ml, H2O2 50 μM. The class given is cell-based, bovine. As to the method:
MPO-mediated BAEC Injury: BAEC (passage 6-8) were cultured in 24 well plates in DMEM containing 10% FBS until 70-80% confluent. The cells were washed with Hank's balanced salt solution (HBSS) 3 times and incubated with MPO (2.5 μg/mL) and H2O2±KYC at the concentrations indicated in HBSS for 30 min. Finally, BAEC were examined visually and images captured for permanent record using a Nikon Eclipse microscope (Model TS 100) fitted with a Nikon Digital Sight DS-U2 camera and NIS-Elements F 3.0 imaging software. Images are representative of 3 independent experiments.
KYC protects BAEC from MPO-induced injury. […] BAEC in 96 well were treated with 100 μl of HBSS containing MPO (2.5 μg/ml) and H2O2 (50 μM) for 20 min with or without KYC. Changes in cell morphology were recorded as described in a previous report by others.

The test system of another data set is SCD mice. Put plainly: WBC counts in treated SCD mice (cytometry). Type of data set: in vivo, mouse. The settings on record: KYC-treated SCD mice. Here is the method:
[…] vascular function in SCD mice. To determine whether inhibiting MPO improves vascular function and/or reduces inflammation in vivo, SCD mice were treated with KYC for three weeks. […] Such physiological and structural changes are consistent with immunofluorescent studies showing that chlorotyrosine and MPO levels are reduced in the aortas of KYC-treated SCD mice compared with non-treated SCD mice (FIG. 13). High WBC counts are indicative of on-going inflammation in SCD and predictive of future vaso-occlusive events. Accordingly, WBC levels were quantified in the SCD mice using standard cytometry assays.

Data set [3] deals with T1, MPO. Put plainly: MPO-catalyzed HOCl production (taurine/TMB assay). Further details: purchased Lee Biosolutions (St. Louis, Mo.). The class given is biochemical. Here is the method:
MPO-mediated HOCl Production. MPO (20 nM) was incubated with H2O2 (50 μM), NaCl (150 mM), taurine (5 mM) and increasing concentrations of KYC in phosphate buffer (100 mM, pH 7.4) which also contained diethylene triamine pentaacetic acid (DTPA, 100 μM) to prevent non-specific, divalent metal cation oxidation for 30 min. Reactions were halted by addition of catalase. Chlorotaurine was quantified using the 3,3-,5,5-tetramethylbenzidine (TMB) assay. Briefly, 400 μL of reaction solution was mixed with 100 μL of 2 mM TMB, 100 μM NaI containing 10% dimethylformamide (DMF) in 400 mM acetate buffer (pH 5.4). After 5 min, absorbance (650 nm) was recorded on a UV/Vis spectrophotometer (Agilent Model 8453).
MPO-catalyzed HOCl Production: MPO (20 nM) was incubated with H2O2 (50 μM), NaCl (150 mM), taurine (5 mM) and increasing concentrations of KYC in a phosphate buffer (100 mM, pH 7.4) containing diethylene triamine pentaacetic acid (DTPA, 100 μM) to prevent non-specific, divalent metal cation oxidation for 30 min. Reactions were halted by addition of catalase (2,000 units/mL). Chlorotaurine was quantified using the TMB assay (66). Briefly, 400 μL of reaction solution was mixed with 100 μL of 2 mM TMB, 100 μM NaI containing 10% dimethylformamide (DMF) in 400 mM acetate buffer (pH 5.4). After 5 min, absorbance (650 nm) was recorded on a UV/Vis spectrophotometer (Agilent Model 8453).

Entries after “also recorded” stand apart in the source; their conditions may differ. Residues, ends and D or L forms follow the SMILES beside them.

As usually defined, the inhibition is the drop in the measured response relative to a control, in per cent. A word on the IC50: it is the concentration that gives 50% inhibition. Regarding `CC(=O)N[C@@H](CCCCN)C(=O)N[C@@H](Cc1ccc(O)cc1)C(=O)N[C@@H](CS)C(N)=O` [KYC, N-acetyl Lysyltyrosylcysteine Amide] (Ac-Lys-Tyr-Cys-NH2), on MPO [1] (12.5 μM KYC, H2O2 25 μM, NaNO2 50 μM, read-out: Inhibition of NO2Tyr formation in BSA), the inhibition at 12.5 µM came to 50%. In addition, the “MPO-mediated BSA nitration (in words)” value is reported as “inhibits” on MPO [1] (30 μM KYC) and “essentially ablates” at MPO [1] (250 μM KYC). In addition, the “NO2Tyr formation in BSA (in words)” value on MPO [1] (50 μM KYC, H2O2 25 μM, NaNO2 50 μM) is “essentially ablated”. Also, the “Solubility in water / aqueous buffers (in words)” value in data set [2] was “highly water soluble”. Moreover, the “BAEC morphology after MPO/H2O2 (in words)” value with BAEC (50 μM KYC) is reported as “almost the same morphology as cultures that were not exposed to MPO”. In addition, the “Protection of BAEC from MPO-induced injury (in words)” value in the data set on BAEC (20 min, increasing KYC) is “dose-dependently increased protection”. Moreover, the “Reduction of WBC counts (in words)” value in the data set with SCD mice is reported as “more than half”. On MPO [3] (12.5 μM), the “Effect on MPO HOCl production at equimolar concentration (in words)” value is “comparable to that of tryptophan; also recorded: significantly more effective”. In addition, the “MPO-dependent HOCl production at 25 μM (in words)” value at MPO [3] (25 μM peptide) is listed as “completely inhibited; also recorded: completely ablated”. For the same compound, the IC50 at MPO [3] (MPO 20 nM, H2O2 50 μM, NaCl 150 mM, taurine 5 mM, 30 min, read-out: IC50 for inhibition of MPO-catalyzed HOCl formation) is around 7 µM.
